The text below walks through data of patent US4293560A, “Talampicillin 2-methoxyphenoxyacetate and pharmaceutical compositions containing it” (priority 1980, dated 1981).

Like-named read-outs stand apart in the source and are kept apart here.

One data set is described as follows: in vivo. The conditions noted are these: rat, po, 100 mg/kg.
For data set [1] the following is noted: rat, in vivo, po.
Description: (§1) The sodium ampicillin and the talampicillin hydrochloride have been administered in aqueous solution; the other talampicillin salts have been administered in aqueous suspension.
(§2) At 0.5, 1,2,4 and 6 hours after the administration the animals were sacrified and their blood was taken from the portal vein.
For data set [2] the following is noted: white powder.
The conditions of data set [3]: cited from earlier work.

Description for in vivo: as §1, §2

In the data set “in vivo”, `CC1(C)S[C@@H]2[C@H](NC(=O)[C@H](N)c3ccccc3)C(=O)N2[C@H]1C(=O)O` [sodium ampicillin, 6-[D(-)-α-aminophenylacetamido]penicillanic acid] gave an area under the curve (AUC) at 6 h of 10700 ng·h/mL, a concentration at 0.5 h of 6400 ng/mL, a concentration at 1 h of 4600 ng/mL and a concentration at 2 h of 1400 ng/mL. In the data set “in vivo”, this molecule returned a concentration at 4 h of 800 ng/mL and a concentration at 6 h of 200 ng/mL.

On to `CC1(C)S[C@@H]2[C@H](NC(=O)[C@H](N)c3ccccc3)C(=O)N2[C@H]1C(=O)OC1OC(=O)c2ccccc21` (some centres unmarked) [talampicillin napsylate, naphthalene 2-sulphonate of talampicillin], for which the “mcg/ml ampicillin, average ± standard error” value was determined as 14.8 ± 3.4 µg/mL in data set [1] (30 min); 6.1 ± 1.8 µg/mL in data set [1] (60 min); 2.7 ± 0.2 µg/mL in data set [1] (120 min); 1.9 ± 0.6 µg/mL in data set [1] (240 min); 1.1 ± 0.1 µg/mL in data set [1] (360 min).

Turning to `CC1(C)S[C@@H]2[C@H](NC(=O)[C@H](N)c3ccccc3)C(=O)N2[C@H]1C(=O)OC1OC(=O)c2ccccc21` (single isomer, unassigned) [talampicillin 2-methoxyphenoxyacetate, 2-methoxyphenoxyacetate of the phthalidyl ester of the 6-[D(-)-α-aminophenylacetamido]penicillanic acid], the SBC in data set [1] worked out at 30. Besides, the “mcg/ml ampicillin, average ± standard error” value in data set [1] (30 min) turned out to be 23.4 ± 2.4 µg/mL; in data set [1] (60 min), 10.2 ± 0.9 µg/mL; in data set [1] (120 min) it was 3.8 ± 1.1 µg/mL; in data set [1] (240 min) it was 1.7 ± 0.4 µg/mL; in data set [1] (360 min), 1.6 ± 1 µg/mL. In data set [2], the storage result is “do not show any problem of storage”.

As to `CC1(C)S[C@@H]2[C@H](NC(=O)[C@H](N)c3ccccc3)C(=O)N2[C@H]1C(=O)OC1OC(=O)c2ccccc21` (single isomer, unassigned) [talampicillin, phtahlidyl ester of the 6-[D(-)-α-aminophenylacetamido]penicillanic acid], the “blood levels of the parent ampicillin (in words)” value in data set [3] (in vivo, po) is reported as “very high blood levels of the parent ampicillin”. Also, in data set [3] (oral route, animals and man), the “absorption (in words)” value was “well absorbed when administered by oral route in animals and in man”.
